One data set has as its system HBV. The data set can be described thus: Inhibitory effect on HBV replication of low molecular weight fraction of liver homogenate of orally dosed mouse. The data set is classed as cell-based, hepatitis B virus. To be noted: 0.2 g/kg oral, liver 1 hour after administration, 1% low molecular weight fraction in HB611 medium. Here is the method:
Inhibitory effect on HBV replication of low molecular weight fraction prepared from liver homogenate of a mouse that was orally administered with a compound.
A sample to be tested was orally administered to each mouse of three animals per group in a dose of 0.2 g/kg, liver perfusion was carried out from the portal vein one hour after the administration and then the liver was excised. The thus excised liver was mixed with the same weight of physiological saline and was homogenized, and then a sample of low molecular weight fraction of the homogenate was prepared using an ultrafiltration membrane having a cutoff of 5,000 molecular weight.
A total of 2×10^4 cells of HB611 were cultured at 37° C. in Dulbecco's ME medium containing 10% fetal bovine serum, streptomycin (100 μg/ml), penicillin (100 IU/ml) and Geneticin (0.2 mg/ml). The medium was exchanged on the 2nd and 5th days of the culturing and then replaced by the medium supplemented with 1% of the just described low molecular weight fraction sample after 8, 11 and 14 days of the culturing, and DNA was recovered from the cells after 17 days of the culturing. The amount of HBV-DNA in the cells was measured by Southern blotting to evaluate inhibitory effect on HBV-DNA synthesis in the cells. […]

The test system of another data set is Hepatitis B virus (HBV). The experiment in a line: HBV growth inhibition effect: HBV-DNA synthesis in HB611 cells, Southern blotting. To be noted: read-out: 50% inhibitory concentration for HBV-DNA synthesis. The data set is classed as cell-based. Here is the method: Hepatitis B virus (HBV) growth inhibition effect
HBV growth inhibition effect was measured in accordance with a known method (K. Ueda et al., Virology, 169, 213-216 (1989)).
(§1) A total of 2×10^4 cells of HB611 (a HBV-producing recombinant human hepatoma cell strain) were cultured at 37° C. in Dulbecco's ME medium containing 10% fetal bovine serum, streptomycin (100 μg/ml), penicillin (100 IU/ml) and Geneticin (trade name, an antibiotic substance manufactured by Life Technologies) (0.2 mg/ml). The medium was exchanged on the 2nd and 5th days of the culturing and then replaced by the medium supplemented with a sample to be tested at a final concentration of from 0.005 to 100 μM after 8, 11 and 14 days of the culturing, and DNA was recovered from the cells after 17 days of the culturing. The amount of HBV-DNA in the cells was measured by Southern blotting to calculate concentration of the compound to give 50% inhibition of HBV-DNA synthesis. Also, the concentration of each compound required for causing death to 50% of the HB611 cells was calculated. For the sake of comparison, the same test was carried out on a known compound PMFA, a dipivaloyloxymethyl ester of PMEA (Reference Example 1) and a known compound 9-[2-[bis(2,2,2-trifluoroethyl)-phosphonylmethoxy]ethyl]-2-amino-6-p-toluylthiopurine disclosed in EP 632048 (Reference Example 2). In this connection, the compound No. corresponds to the compound No. in Table 1.

A short description of data set [1]: Cytotoxicity: concentration causing death to 50% of HB611 cells. As to conditions: human, read-out: 50% Cytotoxic concentration for HB611 cells. The class given is cell-based. Here is the method:
as §1, with “The medium was exchanged on the 2nd and 5th days of the culturing and then replaced by the medium supplemented with a sample to be tested at a final concentration of from 0.005 to 100 μM after 8, 11 and 14 days of the culturing, and DNA was recovered from the cells after 17 days of the culturing.” left out

Data set [2] concerns herpes simplex virus type 2 (HSV-2). As to conditions: reported in literature; cited from earlier work.
For data set [3], the system named is herpes simplex virus type 1 (HSV-1). To be noted: reported in literature; cited from earlier work.
The subject of data set [4] is human immunodeficiency virus (HIV). To be noted: reported in literature; cited from earlier work.
Data set [5] has as its system human hepatitis B virus (HBV). As to conditions: reported in literature; cited from earlier work.
Setting [6] is: 408 h, HB611 cells, medium with sample on days 8, 11 and 14, DNA recovered after 17 days.

Where two headings read alike, the source gives them in different places.

Turning to `CCCSc1nc(N)nc2c1ncn2CCOCP(=O)(O)O` [Ref. Ex. 3, 2-amino-9-(2-phosphonylmethoxyethyl)-6-n-propylthiopurine], the “% inhibition of HBV-DNA synthesis” value in the data set on HBV is 17%.
For the compound `Nc1ncnc2c1ncn2CCOCP(=O)(O)O` [PMEA, 9-(2-phosphonylmethoxy)ethyladenine], the IC50 in the data set with Hepatitis B virus (HBV) (HB611, 408 h) is 0.3 µM. Further, in data set [1], the CC50 was 334 µM. The “effective against HSV-2” value in data set [2] is reported as “effective”. Besides, the “effective against HSV-1” value in data set [3] was “effective”. The “effective against HIV” value in data set [4] is on record as “effective”. Moreover, the “effective against HBV” value in data set [5] was “effective”.
For the compound `CC(C)(C)C(=O)OCOP(=O)(COCCn1cnc2c(N)ncnc21)OCOC(=O)C(C)(C)C` [Ref. Ex. 1], the IC50 in the data set on Hepatitis B virus (HBV) (HB611, 408 h) amounted to 1.08 µM. In addition, in data set [1], the CC50 was found to be 17.7 µM.
Regarding `Nc1nc(N)c2ncn(CCOCP(=O)(O)O)c2n1` [PMDAP, 9-(2-phosphonylmethoxy)ethyl-2,6-diaminopurine], the “effective against HSV-2” value in data set [2] is “effective”. Moreover, the “effective against HSV-1” value in data set [3] is given as “effective”. Further, the “effective against HIV” value in data set [4] was “effective”. Besides, in data set [5], the “effective against HBV” value is listed as “effective”.
Regarding `Cc1ccc(Sc2nc(N)nc3c2ncn3CCOCP(=O)(OCC(F)(F)F)OCC(F)(F)F)cc1` [Ref. Ex. 2, 9-[2-[bis(2,2,2-trifluoroethyl)-phosphonylmethoxy]ethyl]-2-amino-6-p-toluylthiopurine], in the data set on Hepatitis B virus (HBV) (setting [6]), the IC50 was determined as 0.06 µM.
Consider `CC(C)Sc1nc(N)nc2c1ncn2CCOCP(=O)(OCC(F)(F)F)OCC(F)(F)F` [Compound 4, 2-amino-9-[2-[bis(2,2,2-trifluoroethyl)phosphonylmethoxy]ethyl]-6-i-propylthiopurine], for which the IC50 with Hepatitis B virus (HBV) (setting [6]) is 0.07 µM. In addition, in data set [1], the CC50 is > 1000 µM.
`CCCSc1nc(N)nc2c1ncn2CCOCP(=O)(OCC(F)(F)F)OCC(F)(F)F` [Compound 3, 2-amino-9-[2-[bis(2,2,2-trifluoroethyl)phosphonylmethoxy]ethyl]-6-n-propylthiopurine]: the “% inhibition of HBV-DNA synthesis” value in the data set with HBV is 49%. Further, the IC50 with Hepatitis B virus (HBV) (setting [6]) was found to be 0.02 µM. The CC50 in data set [1] is > 1000 µM.
Turning to `CCSc1nc(N)nc2c1ncn2CCOCP(=O)(OCC(F)(F)F)OCC(F)(F)F` [Compound 2, 2-amino-9-[2-[bis(2,2,2-trifluoroethyl)phosphonylmethoxy]ethyl]-6-ethylthiopurine], the IC50 in the data set with Hepatitis B virus (HBV) (setting [6]) is 0.06 µM. Moreover, the CC50 in data set [1] is > 1000 µM.

These data come from patent publication US6194398A, “Phosphonate nucleotide compound” (Mitsubishi Chemical Corporation, priority 1996, dated 2001).
